Where two headings read alike, the source gives them in different places.
Key:
[1] = test system: Pseudomonas aeruginosa (ATCC 9027); experiment: Antimicrobial efficacy (stand-alone log reduction), P. aeruginosa; assay type: cell-based; settings: for log reduction at 4 µg/mL: 4.0 ppm alexidine in ReNu MPS
Protocol: (§1) This Example illustrates the microbiocidal efficacy of solutions according to the present invention. The antimicrobial efficacy of each of various compositions for the chemical disinfection of contact lenses was evaluated. Microbial challenge inoculums were prepared using Pseudomonas aeruginosa (ATCC 9027), Staphylococcus aureus (ATCC 6538), Serratia marcescens (ATCC 13880), Candida albicans (ATCC 10231), and Fusarium solani (ATCC 36031). The test organisms were cultured on appropriate agar and the cultures were harvested using sterile DPBST (Dulbecco's Phosphate Buffered Saline plus 0.05% w/v polysorbate 80) or a suitable diluent and transferred to a suitable vessel. Spore suspensions were filtered through sterile glass wool to remove hyphal fragments. Serratia marcescens, as appropriate, was filtered (eg., through a 1.2 μ filter) to clarify the suspension. After harvesting, the suspension was centrifuged at no more than 5000× g for a maximum of 30 minutes at 20-25° C. The supernatant was poured off and resuspended in DPBST or other suitable diluent. The suspension was centrifuged a second time, and resuspended in DPBST or other suitable diluent. All challenge bacterial and fungal cell suspensions were adjusted with DPBST or other suitable diluent to 1×10^7 -10^8 cfu/mL. The appropriate cell concentration may be estimated by measuring the turbidity of the suspension, for example using a spectrophotometer at a preselected wavelength, for example 490 nm. One tube was prepared containing a minimum of 10 mL of test solution per challenge organism. Each tube of the solution to be tested was inoculated with a suspension of the test organism sufficient to provide a final count of 1.0×10^5 -10^6 cfu/mL, the volume of the inoculum not exceeding 1% of the sample volume. Dispersion of the inoculum was ensured by vortexing the sample for at least 15 seconds. The inoculated product was stored at 10-25° C. Aliquots in the amount of 1.0 mL were taken of the inoculated product for determination of viable counts after certain time periods of disinfection. The time points for the bacteria were 25, 50, 75, and 100% of the minimum disinfection time. Yeast and mold were tested at an additional timepoint of at least 400% of the minimum disinfection time. The suspension was mixed well by vortexing vigorously for at least 5 second. The 1.0 mL aliquots removed at the specified time intervals were subjected to a suitable series of decimal dilutions in validated neutralizing media. The suspensions were mixed vigorously and incubated for a suitable period of time to allow for neutralization of the microbial agent. The viable count of organisms was determined in appropriate dilutions by preparation of triplicate plates of trypticase soy (TSA) agar for bacteria and Sabouraud dextrose agar (SDA) for mold and yeast. The bacterial recovery plates were incubated at 30-35° C. for 2-4 days. The yeast was incubated at 20-30° C. for 2-4 days and mold recovery plates at 20-25° C. for 3-7 days. The average number of colony forming units was determined on countable plates. Countable plates refer to 30-300 cfu/plates for bacteria and yeast, and 8 to 80 cfu/plate for mold except when colonies are observed only for the 10^0 or 10^-1 dilution plates. The microbial reduction was then calculated at the specified time points. […] Following inoculation in a validated neutralizing broth and incubation for an appropriate period of time, the inoculum control must be between 1.0×10^5 -1.0×10^6 cfu/mL
(§2) The solutions were evaluated based on the performance requirement referred to as the "Stand-Alone Procedure for Disinfecting Products" (hereafter the "stand-alone test") and is based on the Disinfection Efficacy Testing for contact lens care products under the Draft Premarket Notification (510(k)) Guidance Document For Contact Lens Care Products dated Apr. 1, 1996, prepared by the U.S. Food and Drug Administration, Division of Ophthalmic Devices. […]

[2] = test system: Pseudomonas aeruginosa, Staphylococcus aureus, Serratia marcescens, Candida albicans, Fusarium solani; experiment: Stand-Alone Procedure for Disinfecting Products, primary performance criteria; assay type: cell-based, bacteria, yeast and mold; settings: for one hour stand-alone test for bacteria: 1 hr, bacteria only
Protocol: as §1, §2

[3] = test system: Pseudomonas aeruginosa, Staphylococcus aureus, Serratia marcescens, Candida albicans, Fusarium solani; experiment: Stand-Alone Procedure, secondary performance criteria (entrance into the regimen test); assay type: cell-based, bacteria, yeast and mold; settings: for 10 minute entrance into the regimen: 10 min; for secondary performance criteria: 4.0 ppm, Example 12
Protocol: This Example illustrates the microbiocidal efficacy of solutions according to the present invention. The antimicrobial efficacy of each of various compositions for the chemical disinfection of contact lenses was evaluated. Microbial challenge inoculums were prepared using Pseudomonas aeruginosa (ATCC 9027), Staphylococcus aureus (ATCC 6538), Serratia marcescens (ATCC 13880), Candida albicans (ATCC 10231), and Fusarium solani (ATCC 36031). The test organisms were cultured on appropriate agar and the cultures were harvested using sterile DPBST (Dulbecco's Phosphate Buffered Saline plus 0.05% w/v polysorbate 80) or a suitable diluent and transferred to a suitable vessel. Spore suspensions were filtered through sterile glass wool to remove hyphal fragments. Serratia marcescens, as appropriate, was filtered (eg., through a 1.2 μ filter) to clarify the suspension. After harvesting, the suspension was centrifuged at no more than 5000× g for a maximum of 30 minutes at 20-25° C. The supernatant was poured off and resuspended in DPBST or other suitable diluent. The suspension was centrifuged a second time, and resuspended in DPBST or other suitable diluent. All challenge bacterial and fungal cell suspensions were adjusted with DPBST or other suitable diluent to 1×10^7 -10^8 cfu/mL. The appropriate cell concentration may be estimated by measuring the turbidity of the suspension, for example using a spectrophotometer at a preselected wavelength, for example 490 nm. One tube was prepared containing a minimum of 10 mL of test solution per challenge organism. Each tube of the solution to be tested was inoculated with a suspension of the test organism sufficient to provide a final count of 1.0×10^5 -10^6 cfu/mL, the volume of the inoculum not exceeding 1% of the sample volume. Dispersion of the inoculum was ensured by vortexing the sample for at least 15 seconds. The inoculated product was stored at 10-25° C. Aliquots in the amount of 1.0 mL were taken of the inoculated product for determination of viable counts after certain time periods of disinfection. […] The viable count of organisms was determined in appropriate dilutions by preparation of triplicate plates of trypticase soy (TSA) agar for bacteria and Sabouraud dextrose agar (SDA) for mold and yeast. […] The average number of colony forming units was determined on countable plates. […] The microbial reduction was then calculated at the specified time points. […]
The solutions were evaluated based on the performance requirement referred to as the "Stand-Alone Procedure for Disinfecting Products" (hereafter the "stand-alone test") and is based on the Disinfection Efficacy Testing for contact lens care products under the Draft Premarket Notification (510(k)) Guidance Document For Contact Lens Care Products dated Apr. […]

## CCCCC(CC)CNC(=N)NC(=N)NCCCCCCNC(=N)NC(=N)NCC(CC)CCCC.Cl.Cl (centres unmarked) [Alexidine.2HCl, 1,1 '-hexamethylenebis(5-(2-ethylhexyl)-biguanide) dihydrochloride]
[1]; ATCC9027, 2.5 min, 4.0 ppm, aged 18 months, Exp. 1, 2.5 min, read-out: Log Reduction
  log reduction at 4 ppm: 2.4
[1]; ATCC9027, 2.5 min, 4.0 ppm, aged 18 months, Exp. 2, 2.5 min, read-out: Log Reduction
  log reduction at 4 ppm: 1.9
[1]; ATCC9027, 2.5 min, 4.0 ppm, aged 18 months, Exp. 3, 2.5 min, read-out: Log Reduction
  log reduction at 4 ppm: 2.7
[1]; ATCC9027, 5 min, 1.0 ppm, read-out: Log Reduction at 5 Minutes
  log reduction at 1 ppm: 0.5
[1]; ATCC9027, 5 min, 2.0 ppm, read-out: Log Reduction at 5 Minutes
  log reduction at 2 ppm: 3
[1]; ATCC9027, 5 min, 3.0 ppm, read-out: Log Reduction at 5 Minutes
  log reduction at 3 ppm: 3.8
[1]; ATCC9027, 5 min, 4.0 ppm, aged 18 months, Exp. 1, 5.0 min, read-out: Log Reduction
  log reduction at 4 ppm: 3.2
[1]; ATCC9027, 5 min, 4.0 ppm, aged 18 months, Exp. 2, 5.0 min, read-out: Log Reduction
  log reduction at 4 ppm: 3.2
[1]; ATCC9027, 5 min, 4.0 ppm, aged 18 months, Exp. 3, 5.0 min, read-out: Log Reduction
  log reduction at 4 ppm: 3.1
[1]; ATCC9027, 5 min, 4.0 ppm, read-out: Log Reduction at 5 Minutes
  log reduction at 4 ppm: 3.7
[1]; ATCC9027, 5 min, 5.0 ppm, read-out: Log Reduction at 5 Minutes
  log reduction at 5 ppm: > 5
[1]; ATCC9027, 0.125 h, 4.0 ppm, aged 18 months, Exp. 1, 7.5 min, read-out: Log Reduction
  log reduction at 4 ppm: 3.4
[1]; ATCC9027, 0.125 h, 4.0 ppm, aged 18 months, Exp. 2, 7.5 min, read-out: Log Reduction
  log reduction at 4 ppm: 3.8
[1]; ATCC9027, 0.125 h, 4.0 ppm, aged 18 months, Exp. 3, 7.5 min, read-out: Log Reduction
  log reduction at 4 ppm: 4.1
[1]; ATCC9027, 10 min, 1.0 ppm, read-out: Log Reduction at 10 Minutes
  log reduction at 1 ppm: 3.2
[1]; ATCC9027, 10 min, 2.0 ppm, read-out: Log Reduction at 10 Minutes
  log reduction at 2 ppm: 4.3
[1]; ATCC9027, 10 min, 3.0 ppm, read-out: Log Reduction at 10 Minutes
  log reduction at 3 ppm: > 5
[1]; ATCC9027, 10 min, 4.0 ppm, aged 18 months, Exp. 1, 10.0 min, read-out: Log Reduction
  log reduction at 4 ppm: > 4.8
[1]; ATCC9027, 10 min, 4.0 ppm, aged 18 months, Exp. 2, 10.0 min, read-out: Log Reduction
  log reduction at 4 ppm: > 4.8
[1]; ATCC9027, 10 min, 4.0 ppm, aged 18 months, Exp. 3, 10.0 min, read-out: Log Reduction
  log reduction at 4 ppm: 4.9
[1]; ATCC9027, 10 min, 4.0 ppm, read-out: Log Reduction at 10 Minutes
  log reduction at 4 ppm: > 5
[1]; ATCC9027, 10 min, 5.0 ppm, read-out: Log Reduction at 10 Minutes
  log reduction at 5 ppm: > 5
[1]; ATCC9027, 0.25 h
  log reduction at 4 ppm: 4
[1]; ATCC9027, 0.25 h, 4.0 ppm, Ex. 7, different lot aged 18 months, 15 min, read-out: Log Reduction
  log reduction at 4 ppm: 4.2
[1]; ATCC9027, 0.25 h, 4.0 ppm, Ex. 8, different batch aged 19 months at 25 °C, 15 min, read-out: Log Reduction
  log reduction at 4 ppm: 3.3
[1]; ATCC9027, 0.5 h, 4.0 ppm, Ex. 6, aged 19 months at 25 °C, 30 min, read-out: Log Reduction
  log reduction at 4 ppm: > 4.8
[1]; ATCC9027, 0.5 h, 4.0 ppm, Ex. 7, different lot aged 18 months, 30 min, read-out: Log Reduction
  log reduction at 4 ppm: > 4.8
[1]; ATCC9027, 0.5 h, 4.0 ppm, Ex. 8, different batch aged 19 months at 25 °C, 30 min, read-out: Log Reduction
  log reduction at 4 ppm: > 4.8
[1]; ATCC9027, 0.75 h, 4.0 ppm, Ex. 6, aged 19 months at 25 °C, 45 min, read-out: Log Reduction
  log reduction at 4 ppm: > 4.8
[1]; ATCC9027, 0.75 h, 4.0 ppm, Ex. 7, different lot aged 18 months, 45 min, read-out: Log Reduction
  log reduction at 4 ppm: > 4.8
[1]; ATCC9027, 0.75 h, 4.0 ppm, Ex. 8, different batch aged 19 months at 25 °C, 45 min, read-out: Log Reduction
  log reduction at 4 ppm: > 4.8
[1]; ATCC9027, 1 h, 1 ppm, 1 hr, read-out: Log Reduction
  log reduction at 1 ppm: > 5
[1]; ATCC9027, 1 h, 2 ppm, 1 hr, read-out: Log Reduction
  log reduction at 2 ppm: > 5
[1]; ATCC9027, 1 h, 3 ppm, 1 hr, read-out: Log Reduction
  log reduction at 3 ppm: > 5
[1]; ATCC9027, 1 h, 1 hr
  log reduction at 4 µg/mL: > 4.8
[1]; ATCC9027, 1 h, 4 ppm, 1 hr, read-out: Log Reduction
  log reduction at 4 ppm: > 5
[1]; ATCC9027, 1 h, 4.0 ppm, Ex. 6, aged 19 months at 25 °C, 60 min, read-out: Log Reduction
  log reduction at 4 ppm: > 4.8
[1]; ATCC9027, 1 h, 4.0 ppm, Ex. 7, different lot aged 18 months, 60 min, read-out: Log Reduction
  log reduction at 4 ppm: > 4.8
[1]; ATCC9027, 1 h, 4.0 ppm, Ex. 8, different batch aged 19 months at 25 °C, 60 min, read-out: Log Reduction
  log reduction at 4 ppm: > 4.8
[1]; ATCC9027, 1 h, 5 ppm, 1 hr, read-out: Log Reduction
  log reduction at 5 ppm: > 5
[1]; ATCC9027, 2 h, 2 hr
  log reduction at 4 µg/mL: > 4.8
[1]; ATCC9027, 3 h, 3 hr
  log reduction at 4 µg/mL: > 4.8
[1]; ATCC9027, 4 h, 4 hr
  log reduction at 4 µg/mL: > 4.8
[2]; 1.0 ppm
  one hour stand-alone test for bacteria: will not pass the one hour stand-alone test for bacteria
[2]; 2.0 ppm
  one hour stand-alone test for bacteria: passes the one hour stand-alone test for bacteria
[2]; 4.0 ppm alexidine in ReNu MPS
  one hour stand-alone test: passed the one hour stand-alone test
[2]; 4.0 ppm, Example 6, 30, 45, 60 min, no rub or rinse
  stand-alone test: able to pass a stand-alone test (with no rub or rinse) at the 30 minute time point, 45 time point and the 60 minute time point
[2]; 4.0 ppm, Example 7, 30, 45, 60 min
  stand-alone test: passed the stand alone test at 30 minutes, 45 minutes, and 60 minutes
[2]; 4.0 ppm, Example 7, 15 min, with respect to Serratia marcescens and Candida albicans
  stand-alone test: only just passed the 15 minute stand-alone test
[2]; 4.0 ppm, Example 8, 30, 45, 60 min, without rubbing
  stand-alone test: passed the stand-alone test (without rubbing) at 30 minutes, 45 minutes, and 60 minutes
[2]; 4.0 ppm, Example 8, 15 min, without rubbing
  stand-alone test: did not pass the test at 15 minutes
[2]; 4.0 ppm, Tables 3, 4 and 5
  time required to pass a stand-alone procedure without rubbing: at least 30 minutes
[3]; 1.0 ppm
  10 minute entrance into the regimen: does not pass the 10 minute entrance into the regimen
[3]; 2.0 ppm
  10 minute entrance into the regimen: passes the 10 minute entrance into the regimen
[3]; soak 2.5 min
  secondary performance criteria: failed in all cases
[3]; soak 10 min
  secondary performance criteria: met in all cases

Source: patent US5965088A, “Method for providing rapid disinfection of contact lenses” (priority 1997, dated 1999)
